{
  "source": "paper PMC5526551",
  "about": "“New hydrazonoindolin-2-ones: Synthesis, exploration of the possible anti-proliferative mechanism of action and encapsulation into PLGA microspheres” (PLoS ONE, 2017)",
  "key": {"[1]": {"experiment": "In vitro 7e release (vial method, phosphate buffer pH 7.4)", "assay_type": "physicochemical", "settings": "after 5 days, pH 7.4, 37°C", "description": "In vitro7e-release: Studies on the in vitro release of 7e from microspheres were carried out using the vial method as reported by Dubey et al.. Compound 7e-PLGA-microspheres containing 5 mg equivalent of compound 7e were suspended in a vial containing phosphate buffer (10 mL, pH 7.4) with 0.3% Tween 80 to improve the solubility of 7e. The vial was incubated in a water bath at 37 ± 0.5°C and vibrated horizontally at speed of 100 rpm. In vitro 7e release was assessed by intermittently sampling the vial (2 mL) at predetermined time intervals (1, 2, 3, 4, 5, 6, 10, 12, 15, 18, 20 and 21 days), then replacing the volume with 2 mL of fresh phosphate buffer.\nIn vitro 7e release was assessed in phosphate buffer (pH 7.4) containing a surfactant to simulate the physiological milieu and maintain sink conditions. Samples were incubated at 37°C, and the amount of 7e was determined using a UV spectrophotometer. […] On the other hand, the release of compound 7e from the raw powder was faster than its release from the microspheres, as 65% of 7e was released after 5 days. This uncontrolled burst release of compound 7e from raw powder could result in too high local concentration which could lead to severe local tissue injure and hamper appropriate delivery to the target."}, "A549": {"tested_on": "A549", "experiment": "Cell viability assay of free 7e and 7e-loaded microspheres", "assay_type": "cell-based, human", "description": "Cell viability assay: The cell viability assay was performed as described in the section of anti-proliferative activity in the supplementary materials.\nThe human lung cancer A549 cell line was incubated with various concentrations (0.8, 1.6, 3.13, 6.25, 12.5, 25 and 50 μM) of both free 7e and 7e-loaded microspheres to evaluate the anti-proliferative activity by assessing their effect on cell viability.\nA549, HT-29, ZR-75 were obtained from the American Type Culture Collection (ATCC). Cells were harvested from 90-95% confluent 10 cm dishes, and diluted in growth media (RPMI-1640 supplemented with 5% fetal bovine serum). An appropriate concentration of cells were prepared to add 1,250 cells in a volume of 25 µL per well in tissue culture treated Griener 384-well microplates, then incubated overnight at 37°C. Compound 7e was diluted to a concentration of 30 µM in DMSO. Concentrated dosing solutions of twice the final concentration were prepared by dilution of the DMSO stocks 1:500 in growth media. Two-fold serial dilutions were then prepared in medium containing 0.2% DMSO to maintain a constant concentration of vehicle throughout the concentration range of the compound. Each of these was added in an equal volume (25 µL) to four wells on each cell assay plate, along with the vehicle control. The highest concentration for serial dilutions of the positive control (sunitinib) was prepared exactly as the experimental compound 7e. […]\nAt the end of the treatment period, assay plates were allowed to cool to RT for 10 min prior to the addition of 25 µL per well Promega CellTiterGlo reagent, followed by additional 10 min incubation at RT. The resulting luminescence was quantitated using a Molecular Devices Spectramax Paradigm."}},
  "data": [
    {"smiles": "O=C1Nc2ccc(Br)cc2C1=NN=C1C(=O)N(Cc2ccccc2)c2ccccc21", "note": "[Compound 7e, 1-Benzyl-3-((5-bromo-2-oxoindolin-3-ylidene)hydrazono)indolin-2-one]", "values": [
      {"measurement": "Cumulative in vitro release of 7e", "setting": "[1]", "value": 65, "unit": "%"},
      {"measurement": "melting point", "value": "265 to 267", "unit": "°C"},
      {"measurement": "Reduction in cell viability", "setting": "A549; A549, 0.8 μM, 24 h", "value": "no cytotoxicity"},
      {"measurement": "Reduction in cell viability", "setting": "A549; A549, 1.6 μM, 24 h", "value": "no cytotoxicity"},
      {"measurement": "Reduction in cell viability", "setting": "A549; A549, 1.6 μM, 72 h", "value": 30, "unit": "%"},
      {"measurement": "Reduction in cell viability", "setting": "A549; A549, 3.1 μM, 72 h", "value": 70, "unit": "%"},
      {"measurement": "Reduction in cell viability", "setting": "A549; A549, 3.1 μM, 120 h", "value": "almost total inhibition"},
      {"measurement": "Reduction in cell viability", "setting": "A549; A549, 3.13 μM, 24 h", "value": 20, "unit": "%"},
      {"measurement": "Reduction in cell viability", "setting": "A549; A549, 6.25 μM, 24 h", "value": "remarkable reduction"},
      {"measurement": "IC50", "setting": "A549; Homo sapiens, A549, 24 h of incubation, read-out: IC50 toward A549 cells", "value": 6.51, "unit": "µM"}
    ]}
  ]
}
